Data taken from PMC2880208 (Cancer research, 2010).
Read-outs that look alike come from different tables or passages of the source.

Assays:
[1] = CD1 nude mice; cited from earlier work
[2] = Intratumor distribution of topotecan; assay type: in vivo, CD1 nude mice; details: U87, TPT25: 25 μg/h topotecan, n=8
[3] = assay type: in vivo, CD1 athymic nude mice; details: CD1 athymic nude, mouse, iv, 4 mg/kg, 4 mg/kg i.v., mean ± SD
[4] = cited from earlier work
U87 cells [5] = experiment: Drug sensitivity; assay type: cell-based, human; details: U87, gefitinib alone 0.001-50 μM
MT330 cells [6] = experiment: Intracellular accumulation of topotecan in vitro; assay type: cell-based, human; details: topotecan 0.1 μM, gefitinib 1 or 10 μM, dose-dependent
MT330 cells [7] = experiment: Drug sensitivity; assay type: cell-based, human; details: MT330, gefitinib alone 0.001-50 μM
[8] = subcutaneous glioma xenografts, for 8 hours after a single oral dose of 55 mg/kg; cited from earlier work
U87 cells [9] = experiment: Intracellular accumulation of topotecan in vitro; assay type: cell-based, human; details: topotecan 0.1 μM, gefitinib 1 or 10 μM, dose-dependent

For `CC[C@@]1(O)C(=O)OCc2c1cc1n(c2=O)Cc2cc3c(CN(C)C)c(O)ccc3nc2-1` [topotecan], which “Css,plasma (unbound lactone)” value (Steady-state; 25 μg/h topotecan infusion, before gefitinib, n=15) is on record?
Its value is 34 ± 8 ng/mL.

And the “Css,tECF (unbound topotecan lactone in tumor ECF)” value (Steady-state; U87, 25 μg/h topotecan infusion, after gefitinib 200 mg/kg, n=10)?
Its value is 30 ± 12 ng/mL.

What about the “Css,tECF (unbound topotecan lactone in tumor ECF)” value (Steady-state; U87, 25 μg/h topotecan infusion, before gefitinib, n=10) of the same molecule?
Its value is 22 ± 10 ng/mL.

What about the “Css,tECF (unbound topotecan lactone in tumor ECF)” value (Steady-state; U87, TPT12-GEF: 12.5 μg/h topotecan after 200 mg/kg gefitinib, n=3) of the same molecule?
Its value is 6.4 ± 0.8 ng/mL.

What about the “Unbound fraction in plasma” value [1] of the same molecule?
Its value is 27%.

And the “Atot,tumor (total topotecan lactone in tumor homogenate at steady-state)” value [2]?
Its value is 47 ± 21 ng/mg tumor.

And the Kp ([3]; brain extracellular fluid (microdialysate) / plasma, Pbrain (brain ECF-to-plasma AUC ratio of unbound topotecan lactone), non-tumor-bearing CD1 nude mice, n=7)?
Its Kp is 0.3 ± 0.11.

And the Kp ([3]; Pcontralateral (contralateral brain ECF-to-plasma AUC ratio), U87 tumor-bearing mice, n=5)?
Its Kp is 0.42 ± 0.11.

Which “Effect of gefitinib on topotecan lactone plasma clearance” value [4] does the source give for `COc1cc2ncnc(Nc3ccc(F)c(Cl)c3)c2cc1OCCCN1CCOCC1` [gefitinib] here?
Its value is “halves”.

What about the “Effect on cell growth” value (U87 cells [5]) of the same molecule?
Its value is “did not substantially affect growth”.

What about the “Enhancement of topotecan accumulation by gefitinib” value (MT330 cells [6]) of the same molecule?
Its value is at most 36%.

What about the “Effect on cell growth” value (MT330 cells [7]) of the same molecule?
The value was “did not substantially affect growth”.

And the Intratumor gefitinib concentration [8]?
The Intratumor gefitinib concentration was over 20 µM.

And the “Enhancement of topotecan accumulation by gefitinib” value (U87 cells [9])?
Its value is at most 36%.
